Measurements: ChEMBL document CHEMBL1201862, “PubChem BioAssay data set” (2004)
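Step 1: Grow cells in 96-well plates. Step 2: Expose to compound for 48 hours at 5 concentrations. Step 3: Interpolate endpoints linearly; if unreached, use highest concentration. GI50: concentration for 50% inhibition of growth.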 The source made the active and inactive calls. No stated cut-off is given here; in the data, active = GI50 up to about 1.1 µM and inactive = higher.

How the values were obtained:
Experiment in all cases: inhibition of tumour cell growth, NCI panel, 48 h
ACHN = test system: ACHN
CAKI-1 = test system: CAKI-1
EKVX = test system: EKVX
HCC 2998 = test system: HCC 2998
HL-60 = test system: HL-60
HOP-92 = test system: HOP-92
K562 = test system: K562
Malme-3M = test system: Malme-3M
NCI-H23 = test system: NCI-H23
NCI-H522 = test system: NCI-H522
OVCAR-4 = test system: OVCAR-4
RPMI-8226 = test system: RPMI-8226
RXF 393 = test system: RXF 393
SF-295 = test system: SF-295
SK-MEL-28 = test system: SK-MEL-28
SK-MEL-2 = test system: SK-MEL-2
SK-MEL-5 = test system: SK-MEL-5
SN12C = test system: SN12C
TK-10 = test system: TK-10
UACC-62 = test system: UACC-62

## Nc1c2c(=O)[nH]c(=O)c2c(N)c2c(=O)c3ccccc3c(=O)c12
ACHN
  GI50: 2.24 µM (inactive)
CAKI-1
  GI50: 3.5 µM (inactive)
EKVX
  GI50: 3.17 µM (inactive)
HCC 2998
  GI50: 4.48 µM (inactive)
HL-60
  GI50: 2 µM (inactive)
HOP-92
  GI50: 12.9 µM (inactive)
K562
  GI50: 3.02 µM (inactive)
Malme-3M
  GI50: 0.222 µM (active)
NCI-H23
  GI50: 0.76 µM (active)
NCI-H522
  GI50: 3.35 µM (inactive)
OVCAR-4
  GI50: 1.21 µM (inactive)
RPMI-8226
  GI50: 2.05 µM (inactive)
RXF 393
  GI50: 3.57 µM (inactive)
SF-295
  GI50: 1.59 µM (inactive)
SK-MEL-28
  GI50: 2.03 µM (inactive)
SK-MEL-2
  GI50: 2.07 µM (inactive)
SK-MEL-5
  GI50: 0.179 µM (active)
SN12C
  GI50: 1.52 µM (inactive)
TK-10
  GI50: 9.68 µM (inactive)
UACC-62
  GI50: 1.61 µM (inactive)

## CC1(c2nc3ccccc3[nH]2)CCC(CO)C(C)(C)O1 (stereo not drawn)
ACHN
  GI50: > 100 µM (inactive)
CAKI-1
  GI50: > 100 µM (inactive)
EKVX
  GI50: > 100 µM (inactive)
HCC 2998
  GI50: > 100 µM (inactive)
HL-60
  GI50: > 100 µM (inactive)
HOP-92
  GI50: > 100 µM (inactive)
K562
  GI50: > 100 µM (inactive)
Malme-3M
  GI50: > 100 µM (inactive)
NCI-H23
  GI50: > 100 µM (inactive)
NCI-H522
  GI50: > 100 µM (inactive)
OVCAR-4
  GI50: > 100 µM (inactive)
RPMI-8226
  GI50: > 100 µM (inactive)
RXF 393
  GI50: > 100 µM (inactive)
SF-295
  GI50: > 100 µM (inactive)
SK-MEL-28
  GI50: > 100 µM (inactive)
SK-MEL-2
  GI50: > 100 µM (inactive)
SK-MEL-5
  GI50: > 100 µM (inactive)
SN12C
  GI50: > 100 µM (inactive)
TK-10
  GI50: > 100 µM (inactive)
UACC-62
  GI50: > 100 µM (inactive)

## CCCCCCCCCC/C=C/C=O
ACHN
  GI50: > 100 µM (inactive)
EKVX
  GI50: > 100 µM (inactive)
HCC 2998
  GI50: > 100 µM (inactive)
HL-60
  GI50: 56.1 µM (inactive)
HOP-92
  GI50: > 100 µM (inactive)
K562
  GI50: > 100 µM (inactive)
Malme-3M
  GI50: > 100 µM (inactive)
NCI-H23
  GI50: > 100 µM (inactive)
NCI-H522
  GI50: > 100 µM (inactive)
RXF 393
  GI50: > 100 µM (inactive)
SF-295
  GI50: > 100 µM (inactive)
SK-MEL-28
  GI50: > 100 µM (inactive)
SK-MEL-2
  GI50: > 100 µM (inactive)
SK-MEL-5
  GI50: > 100 µM (inactive)
SN12C
  GI50: > 100 µM (inactive)
TK-10
  GI50: > 100 µM (inactive)
UACC-62
  GI50: > 100 µM (inactive)

## COc1cc(OC)c2nc(C)c3c(c2c1)OCC3
ACHN
  GI50: > 100 µM (inactive)
CAKI-1
  GI50: 19.8 µM (inactive)
EKVX
  GI50: 75.2 µM (inactive)
HCC 2998
  GI50: > 100 µM (inactive)
HL-60
  GI50: > 100 µM (inactive)
HOP-92
  GI50: 40.6 µM (inactive)
K562
  GI50: > 100 µM (inactive)
Malme-3M
  GI50: > 100 µM (inactive)
NCI-H23
  GI50: > 100 µM (inactive)
NCI-H522
  GI50: 72.9 µM (inactive)
OVCAR-4
  GI50: > 100 µM (inactive)
RPMI-8226
  GI50: > 100 µM (inactive)
RXF 393
  GI50: 22.6 µM (inactive)
SF-295
  GI50: 34 µM (inactive)
SK-MEL-28
  GI50: > 100 µM (inactive)
SK-MEL-2
  GI50: > 100 µM (inactive)
SK-MEL-5
  GI50: > 100 µM (inactive)
SN12C
  GI50: 89.3 µM (inactive)
TK-10
  GI50: > 100 µM (inactive)
UACC-62
  GI50: 44.8 µM (inactive)

## C=CC[N+](CCO)(CCO)CCCCCCCCCCCCCCCCCC
CAKI-1
  GI50: 4.46 µM (inactive)
EKVX
  GI50: 17 µM (inactive)
HCC 2998
  GI50: 3.23 µM (inactive)
HL-60
  GI50: 0.714 µM (active)
HOP-92
  GI50: 1.5 µM (inactive)
K562
  GI50: 2.96 µM (inactive)
Malme-3M
  GI50: 14.8 µM (inactive)
NCI-H23
  GI50: 12.5 µM (inactive)
NCI-H522
  GI50: 3.77 µM (inactive)
OVCAR-4
  GI50: 3.88 µM (inactive)
RPMI-8226
  GI50: 2.25 µM (inactive)
RXF 393
  GI50: 2.19 µM (inactive)
SF-295
  GI50: 4.41 µM (inactive)
SK-MEL-28
  GI50: 12.9 µM (inactive)
SK-MEL-2
  GI50: 14.5 µM (inactive)
SK-MEL-5
  GI50: 8.13 µM (inactive)
SN12C
  GI50: 6.78 µM (inactive)
UACC-62
  GI50: 4.58 µM (inactive)

## COc1ccc(/C=N/n2cnc3[nH]c(C)c(Cc4ccccc4)c3c2=N)cc1
ACHN
  GI50: 97.1 µM (inactive)
CAKI-1
  GI50: > 100 µM (inactive)
EKVX
  GI50: > 100 µM (inactive)
HCC 2998
  GI50: > 100 µM (inactive)
HL-60
  GI50: > 100 µM (inactive)
HOP-92
  GI50: 29.2 µM (inactive)
Malme-3M
  GI50: > 100 µM (inactive)
NCI-H23
  GI50: 53.1 µM (inactive)
NCI-H522
  GI50: 65 µM (inactive)
OVCAR-4
  GI50: > 100 µM (inactive)
RPMI-8226
  GI50: 34.8 µM (inactive)
RXF 393
  GI50: 19.2 µM (inactive)
SF-295
  GI50: 53.3 µM (inactive)
SK-MEL-28
  GI50: > 100 µM (inactive)
SK-MEL-2
  GI50: > 100 µM (inactive)
SK-MEL-5
  GI50: > 100 µM (inactive)
SN12C
  GI50: 92 µM (inactive)
TK-10
  GI50: > 100 µM (inactive)
UACC-62
  GI50: > 100 µM (inactive)

## COc1ccc(Nc2nc3ccccc3nc2-c2cccs2)cc1
ACHN
  GI50: > 100 µM (inactive)
CAKI-1
  GI50: > 100 µM (inactive)
EKVX
  GI50: > 100 µM (inactive)
HCC 2998
  GI50: 75 µM (inactive)
HL-60
  GI50: 17.5 µM (inactive)
HOP-92
  GI50: 51.5 µM (inactive)
K562
  GI50: > 100 µM (inactive)
Malme-3M
  GI50: > 100 µM (inactive)
NCI-H23
  GI50: > 100 µM (inactive)
NCI-H522
  GI50: 59.4 µM (inactive)
OVCAR-4
  GI50: > 100 µM (inactive)
RXF 393
  GI50: > 100 µM (inactive)
SF-295
  GI50: 70.6 µM (inactive)
SK-MEL-28
  GI50: > 100 µM (inactive)
SK-MEL-2
  GI50: > 100 µM (inactive)
SK-MEL-5
  GI50: 65.3 µM (inactive)
SN12C
  GI50: > 100 µM (inactive)
TK-10
  GI50: > 100 µM (inactive)
UACC-62
  GI50: > 100 µM (inactive)
